# From patent publication US10077261B2, “Imidazolin-5-one derivative useful as FASN inhibitors for the treatment of cancer” (Janssen Pharmaceutica NV, priority 2012, dated 2018)
# Legend:
# [1] = target: T1, hFASN enzyme (full length) (Homo sapiens, UniProt P49327); assay: Fatty Acid Synthase (FASN) inhibition scintillation proximity assay; type: biochemical; settings: for inhibition at 10 µM: read-out: Human FASN % inhibition @ 10 μM, 10 μM test compound; for IC50: read-out: Human FASN pIC50 (converted)
# T1 construct: 10 μL hFASN enzyme (full length, 300 ng, purified in house); made in house
# How it was run: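 Read-out relies on hydrophobic ³H-palmitate product, formed from ³H-acetyl-CoA and malonyl-CoA, binding streptavidin imaging beads, measured at 610±20 nm after at least 24 h. Full-length enzyme (300 ng) in phosphate buffer pH 7.5 with DTT; eight compound concentrations, 0.01–30 μM.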
# A2780 ovarian cells [2] = assay: A2780 ovarian cell proliferation assay in lipid reduced medium, with palmitate (MTT); type: cell-based; settings: Homo sapiens, A2780, 96 h; read-out: pIC50 A2780 Ovarian Cell, With Palmitate (converted)
# Procedure: (§1) The biological assays described below correspond to comparative assays for ovarian cell proliferation. […] Compounds active in the absence of palmitate would not be expected to be active in the control.
# (§2) 2500 cells were seeded in a 96-well clear well plate in 200 μL RPMI1640 with 10% Fetal Calf Serum (Hyclone), and incubated at 37° C., 5% CO2. Blanks were wells without cells. The next day the culture medium was aspirated and replaced by 160 μL culture medium with 10% Lipid-Reduced Serum (LRS, Hyclone). 20 μL test compound (at concentrations of 30 μM, 10 μM, 3 μM, 1 μM, 0.30 μM, 0.10 μM, 0.03 μM and 0.01 μM)/DMSO dilution followed by 20 μL palmitate-BSA solution were added to a final concentrations of 0.2% DMSO, 25 μM palmitate (Sigma, P0500, 10 mM stock solution in ethanol) 0.2% fatty-acid-free BSA, 0.25% ethanol. After 96 h incubation, an MTT assay was performed. The absorbance was measured at 544 nm on a SPECTRAMAX brand microplate reader (Molecular Devices).
# A best fit curve was fitted by a minimum sum of squares method, plotting Controlmin versus test compound concentration.
# (§3) Representative compounds of the present invention were tested according to the procedure as described in Biological Example 3 above, with results as listed in Table 8, below.
# A2780 ovarian cells [3] = assay: A2780 ovarian cell proliferation assay in lipid reduced medium, without palmitate (MTT); type: cell-based; settings: Homo sapiens, A2780, 96 h; read-out: pIC50 A2780 Ovarian Cell, Without Palmitate (converted)
# Procedure: as §1
# as §2, with “ethanol-BSA” for “palmitate-BSA”, “DMSO,” for “DMSO, 25 μM palmitate (Sigma, P0500, 10 mM stock solution in ethanol)”, “incubation” for “incubation,”
# where mLC and mHC were the means of the low control wells and high control wells on the plate, after manual exclusion of outliers. A plot of Controlmin versus test compound concentration was fitted to a 4-parameter logistic curve using a non-linear least squares regression method.
# as §3
# T1 sequence (P49327 whole entry): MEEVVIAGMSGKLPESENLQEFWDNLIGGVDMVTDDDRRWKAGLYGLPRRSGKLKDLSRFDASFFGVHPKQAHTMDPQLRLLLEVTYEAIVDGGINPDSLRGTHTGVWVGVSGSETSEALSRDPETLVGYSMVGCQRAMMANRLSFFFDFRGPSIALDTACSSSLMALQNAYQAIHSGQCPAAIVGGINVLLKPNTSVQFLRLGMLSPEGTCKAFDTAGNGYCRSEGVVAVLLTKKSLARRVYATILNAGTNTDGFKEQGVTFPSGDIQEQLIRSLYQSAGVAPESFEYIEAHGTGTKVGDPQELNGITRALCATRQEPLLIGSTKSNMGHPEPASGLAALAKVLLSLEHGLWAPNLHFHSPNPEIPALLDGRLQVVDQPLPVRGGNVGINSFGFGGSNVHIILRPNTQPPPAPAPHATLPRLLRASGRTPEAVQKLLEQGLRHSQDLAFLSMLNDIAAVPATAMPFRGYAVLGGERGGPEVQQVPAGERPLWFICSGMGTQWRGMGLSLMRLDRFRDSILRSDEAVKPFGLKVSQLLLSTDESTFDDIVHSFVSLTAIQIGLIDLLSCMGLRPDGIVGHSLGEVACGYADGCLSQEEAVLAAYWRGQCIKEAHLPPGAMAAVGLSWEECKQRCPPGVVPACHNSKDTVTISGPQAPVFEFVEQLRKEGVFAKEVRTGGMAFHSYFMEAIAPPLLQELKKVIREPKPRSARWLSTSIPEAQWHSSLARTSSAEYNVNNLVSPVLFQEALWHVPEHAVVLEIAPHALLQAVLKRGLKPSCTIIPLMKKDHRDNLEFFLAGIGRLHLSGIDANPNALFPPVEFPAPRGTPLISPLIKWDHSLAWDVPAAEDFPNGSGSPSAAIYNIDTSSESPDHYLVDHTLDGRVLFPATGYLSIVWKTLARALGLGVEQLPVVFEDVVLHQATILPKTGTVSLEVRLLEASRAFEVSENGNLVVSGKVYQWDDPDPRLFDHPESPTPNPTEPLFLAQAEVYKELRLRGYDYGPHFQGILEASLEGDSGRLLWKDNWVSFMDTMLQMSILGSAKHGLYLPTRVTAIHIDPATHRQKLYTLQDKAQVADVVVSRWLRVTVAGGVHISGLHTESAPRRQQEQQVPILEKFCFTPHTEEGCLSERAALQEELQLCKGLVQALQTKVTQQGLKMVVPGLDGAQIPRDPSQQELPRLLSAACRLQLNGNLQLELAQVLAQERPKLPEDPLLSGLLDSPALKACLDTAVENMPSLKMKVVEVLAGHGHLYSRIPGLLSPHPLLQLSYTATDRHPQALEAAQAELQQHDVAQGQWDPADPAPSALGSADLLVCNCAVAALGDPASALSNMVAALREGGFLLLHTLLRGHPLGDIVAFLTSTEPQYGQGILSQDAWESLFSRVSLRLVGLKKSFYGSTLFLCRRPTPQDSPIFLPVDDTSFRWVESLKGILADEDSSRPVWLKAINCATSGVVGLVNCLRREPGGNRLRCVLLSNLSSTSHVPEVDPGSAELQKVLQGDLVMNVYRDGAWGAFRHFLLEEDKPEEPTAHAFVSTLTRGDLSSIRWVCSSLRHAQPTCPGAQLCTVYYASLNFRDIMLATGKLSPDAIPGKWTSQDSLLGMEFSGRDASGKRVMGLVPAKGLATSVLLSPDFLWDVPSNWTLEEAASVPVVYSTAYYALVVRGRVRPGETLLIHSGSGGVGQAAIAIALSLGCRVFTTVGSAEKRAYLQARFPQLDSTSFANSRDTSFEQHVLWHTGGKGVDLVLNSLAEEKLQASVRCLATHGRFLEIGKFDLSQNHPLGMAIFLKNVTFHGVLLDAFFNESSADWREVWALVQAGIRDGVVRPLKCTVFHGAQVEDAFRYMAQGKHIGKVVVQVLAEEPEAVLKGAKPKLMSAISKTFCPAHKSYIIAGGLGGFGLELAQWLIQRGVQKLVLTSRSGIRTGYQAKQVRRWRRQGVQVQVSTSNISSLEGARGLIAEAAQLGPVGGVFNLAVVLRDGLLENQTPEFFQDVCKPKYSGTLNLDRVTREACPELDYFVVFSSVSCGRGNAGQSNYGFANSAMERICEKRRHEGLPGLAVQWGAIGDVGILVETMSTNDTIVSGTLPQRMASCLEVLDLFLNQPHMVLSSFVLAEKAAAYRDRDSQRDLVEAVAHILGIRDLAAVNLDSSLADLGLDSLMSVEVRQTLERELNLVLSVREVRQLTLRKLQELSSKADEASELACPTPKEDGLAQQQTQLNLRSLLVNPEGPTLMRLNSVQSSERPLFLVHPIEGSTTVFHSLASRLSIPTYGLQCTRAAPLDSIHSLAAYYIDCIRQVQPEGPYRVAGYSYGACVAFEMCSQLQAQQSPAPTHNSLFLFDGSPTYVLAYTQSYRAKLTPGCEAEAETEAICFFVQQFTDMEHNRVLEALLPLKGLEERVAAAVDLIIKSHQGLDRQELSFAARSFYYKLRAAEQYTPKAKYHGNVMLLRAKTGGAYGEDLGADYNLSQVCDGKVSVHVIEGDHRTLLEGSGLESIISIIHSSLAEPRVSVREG
smiles,measurement,setting,value
"O=C(C1CC1)N1CC(CN2C(=O)C3(CC3)N=C2c2ccc(-c3ccc4nn(CCO)cc4c3)cc2)C1 [compound 549, 6-{[1-(Cyclopropylcarbonyl)azetidin-3-yl]methyl}-5-{4-[2-(2-hydroxyethyl)-2H-indazol-5-yl]phenyl}-4,6-diazaspiro[2.4]hept-4-en-7-one]",inhibition at 10 µM,[1],83%
same,IC50,[1],1.78 µM
same,IC50,A2780 ovarian cells [2],> 10 µM
same,IC50,A2780 ovarian cells [3],3.8 µM
"COC(=O)N1CC2(C1)N=C(c1ccc(-c3ccc4cccnc4c3)cc1)N(C[C@@H]1CCN(S(C)(=O)=O)C1)C2=O [compound 900, (S)-methyl 7-((1-(methylsulfionyl)pyrrolidin-3-yl)methyl)-8-oxo-6-(4-(quinolin-7-yl)phenyl)-2,5,7-triazaspiro[3.4]oct-5-ene-2-carboxylate]",inhibition at 10 µM,[1],9%
same,IC50,[1],> 10 µM
same,IC50,A2780 ovarian cells [2],> 10 µM
same,IC50,A2780 ovarian cells [3],> 10 µM
"Cc1cc(-c2cccc(S(C)(=O)=O)c2)ccc1C1=NC2(CC2)C(=O)N1CC1CN(C(=O)C2CC2)C1 [compound 775, 6-((1-(cyclopropanecarbonyl)azetidin-3-yl)methyl)-5-(3-methyl-3′-(methylsulfonyl)-[1,1′-biphenyl]-4-yl)-4,6-diazaspiro[2.4]hept-4-en-7-one]",inhibition at 10 µM,[1],34%
same,IC50,[1],> 10 µM
same,IC50,A2780 ovarian cells [2],> 10 µM
same,IC50,A2780 ovarian cells [3],> 10 µM
"CC(C)C(=O)N1CCC2(CC1)N=C(c1ccc(-c3ccc4cnccc4c3)cc1)N(CC1CN(C(=O)C3CC3)C1)C2=O [compound 137, 3-{[1-(Cyclopropylcarbonyl)azetidin-3-yl]methyl}-2-(4-isoquinolin-6-ylphenyl)-8-(2-methylpropanoyl)-1,3,8-triazaspiro[4.5]dec-1-en-4-one]",inhibition at 10 µM,[1],112%
same,IC50,[1],0.178 µM
same,IC50,A2780 ovarian cells [2],~6.03 µM
same,IC50,A2780 ovarian cells [3],~0.851 µM
"CS(=O)(=O)c1cccc(-c2ccc(C3=NC4(CC4)C(=O)N3C[C@@H]3CCN(C(=O)C4CC4)C3)c(F)c2)c1 [compound 634, 6-{[(3R)-1-(Cyclopropylcarbonyl)pyrrolidin-3-yl]methyl}-5-[3-fluoro-3′-(methylsulfonyl)biphenyl-4-yl]-4,6-diazaspiro[2.4]hept-4-en-7-one]",inhibition at 10 µM,[1],68%
same,IC50,[1],3.02 µM
same,IC50,A2780 ovarian cells [2],> 10 µM
same,IC50,A2780 ovarian cells [3],2 µM
"O=C(C1CC1)N1CC(CN2C(=O)C3(CC3)N=C2c2ccc(-c3cccc(S(=O)(=O)C4CC4)c3)cc2F)C1 [compound 651, 6-{[1-(Cyclopropylcarbonyl)azetidin-3-yl]methyl}-5-[3′-(cyclopropylsulfonyl)-3-fluorobiphenyl-4-yl]-4,6-diazaspiro[2.4]hept-4-en-7-one]",inhibition at 10 µM,[1],77%
same,IC50,[1],3.09 µM
same,IC50,A2780 ovarian cells [2],> 10 µM
same,IC50,A2780 ovarian cells [3],2.75 µM
"Cn1cc(-c2ccc(-c3ccc(C4=NC5(CCOCC5)C(=O)N4C[C@@H]4CCN(S(C)(=O)=O)C4)cc3)cc2)cn1 [compound 918, (S)-2-(4′-(1-metrhyl-1H-pyrazol-4-yl)-[1,1′-biphenyl]-4-yl)-3-((1-(methylsulfonyl)pyrrolidin-3-yl)methyl)-8-oxa-1,3-diazaspiro[4.5]dec-1-en-4-one]",inhibition at 10 µM,[1],2%
same,IC50,[1],> 10 µM
same,IC50,A2780 ovarian cells [2],> 10 µM
same,IC50,A2780 ovarian cells [3],> 10 µM
"Cn1ccc(C(=O)N2CC[C@@H](CN3C(=O)C4(CCCC4)N=C3c3ccc(-c4ccc5occc5c4)cc3)C2)n1 [compound 118, 2-[4-(1-Benzofuran-5-yl)phenyl]-3-({(3R)-1-[(1-methyl-1H-pyrazol-3-yl)carbonyl]pyrrolidin-3-yl}methyl)-1,3-diazaspiro[4.4]non-1-en-4-one]",inhibition at 10 µM,[1],101%
same,IC50,[1],0.355 µM
same,IC50,A2780 ovarian cells [2],> 10 µM
same,IC50,A2780 ovarian cells [3],1.66 µM
Cc1cc(-c2ccc(-c3ccnn3CC(C)C)cc2)ccc1C1=NC2(CC2)C(=O)N1CC1CN(C(=O)C2(C)CC2)C1 [compound 785],inhibition at 10 µM,[1],24%
same,IC50,[1],> 10 µM
same,IC50,A2780 ovarian cells [2],~6.17 µM
same,IC50,A2780 ovarian cells [3],3.89 µM
"Cc1cc(-c2cccc(S(=O)(=O)C(C)C)c2)ccc1C1=NC2(CC2)C(=O)N1C[C@@H]1CCN(C(=O)C2CC2)C1 [compound 636, 6-{[(3R)-1-(Cyclopropylcarbonyl)pyrrolidin-3-yl]methyl}-5-{3-methyl-3′-[(1-methylethyl)sulfonyl]biphenyl-4-yl}-4,6-diazaspiro[2.4]hept-4-en-7-one]",inhibition at 10 µM,[1],59%
same,IC50,[1],6.76 µM
same,IC50,A2780 ovarian cells [2],> 10 µM
same,IC50,A2780 ovarian cells [3],~5.89 µM
"O=C(C1CC1)N1CC(CN2C(=O)C3(CC3)N=C2c2ccc(-c3cc(C(F)(F)F)ccc3F)cc2F)C1 [compound 630, 6-{[1-(Cyclopropylcarbonyl)azetidin-3-yl]methyl}-5-[2′,3-difluoro-5′-(trifluoromethyl)biphenyl-4-yl]-4,6-diazaspiro[2.4]hept-4-en-7-one]",inhibition at 10 µM,[1],67%
same,IC50,[1],3.16 µM
same,IC50,A2780 ovarian cells [2],> 10 µM
same,IC50,A2780 ovarian cells [3],4.07 µM
"Cc1cn(C)c2ccc(-c3ccc(C4=NC5(CC5)C(=O)N4CC4CN(C(=O)C5CC5)C4)c(F)c3)cc12 [compound 573, 6-{[1-(Cyclopropylcarbonyl)azetidin-3-yl]methyl}-5-[4-(1,3-dimethyl-1H-indol-5-yl)-2-fluorophenyl]-4,6-diazaspiro[2.4]hept-4-en-7-one]",inhibition at 10 µM,[1],88%
same,IC50,[1],0.166 µM
same,IC50,A2780 ovarian cells [2],1.38 µM
same,IC50,A2780 ovarian cells [3],0.0537 µM
"Cn1nccc1-c1ccc(-c2ccc(C3=NC4(CC4)C(=O)N3CC3CN(C(=O)C4(O)CC4)C3)c(F)c2)cc1 [compound 577, 5-[3-Fluoro-4′-(1-methyl-1H-pyrazol-5-yl)biphenyl-4-yl]-6-({1-[(1-hydroxycyclopropyl)carbonyl]azetidin-3-yl}methyl)-4,6-diazaspiro[2.4]hept-4-en-7-one]",inhibition at 10 µM,[1],67%
same,IC50,[1],2.34 µM
same,IC50,A2780 ovarian cells [2],> 10 µM
same,IC50,A2780 ovarian cells [3],2.45 µM
"O=C(C1CC1)N1CC(CN2C(=O)C3(CC3)N=C2c2ccc(-c3ccc4nncn4c3)cc2)C1 [compound 539, 6-{[1-(Cyclopropylcarbonyl)azetidin-3-yl]methyl}-5-(4-[1,2,4]triazolo[4,3-a]pyridin-6-ylphenyl)-4,6-diazaspiro[2.4]hept-4-en-7-one]",inhibition at 10 µM,[1],54%
same,IC50,[1],~6.31 µM
same,IC50,A2780 ovarian cells [2],> 10 µM
same,IC50,A2780 ovarian cells [3],> 10 µM
"Cc1cc(-c2ccc3nn(C)c(CO)c3c2)ccc1C1=NC2(CC2)C(=O)N1CC1CN(C(=O)C2CC2)C1 [compound 587, 6-{[1-(Cyclopropylcarbonyl)azetidin-3-yl]methyl}-5-{4-[3-(hydroxymethyl)-2-methyl-2H-indazol-5-yl]-2-methylphenyl}-4,6-diazaspiro[2.4]hept-4-en-7-one]",inhibition at 10 µM,[1],70%
same,IC50,[1],3.31 µM
same,IC50,A2780 ovarian cells [2],> 10 µM
same,IC50,A2780 ovarian cells [3],~8.51 µM
"O=C(C1CC1)N1CC[C@@H](CN2C(=O)C3(CCCC3)N=C2c2ccc(-c3ccc4occc4c3)cc2F)C1 [compound 120, 2-[4-(1-Benzofuran-5-yl)-2-fluorophenyl]-3-{[(3R)-1-(cyclopropylcarbonyl)pyrrolidin-3-yl]methyl}-1,3-diazaspiro[4.4]non-1-en-4-one]",inhibition at 10 µM,[1],116%
same,IC50,[1],0.0389 µM
same,IC50,A2780 ovarian cells [2],5.01 µM
same,IC50,A2780 ovarian cells [3],~0.759 µM
"Cc1cc(-c2ccc3c(cnn3C)c2)ccc1C1=NC2(CC2)C(=O)N1CC1CN(C(=O)c2nccs2)C1 [compound 518, 5-[2-Methyl-4-(1-methyl-1H-indazol-5-yl)phenyl]-6-{[1-(1,3-thiazol-2-ylcarbonyl)azetidin-3-yl]methyl}-4,6-diazaspiro[2.4]hept-4-en-7-one]",inhibition at 10 µM,[1],62%
same,IC50,[1],~4.68 µM
same,IC50,A2780 ovarian cells [2],~4.07 µM
same,IC50,A2780 ovarian cells [3],~3.98 µM
